According to PubChem BioAssay (NCI):
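96-well plates; 48 h exposure; 5 concentrations. Endpoints by linear interpolation between flanking doses. Not reached: highest tested concentration assigned. GI50 = concentration required for 50% inhibition of growth. Definition used: TGI = concentration required for complete inhibition of growth.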 Starred links: 1 amine or outer side, 2 acyl side, 3 side chain; linkers in the order of their positions; H or OH if unused. Non-standard residues stand in square brackets, D forms with d. Residues, ends and D or L forms follow the SMILES beside them. *: point of attachment. X14 = C/C=C/CC(C)C(O)[C@H](N[*:1])C(=O)[*:2]; Decanoyl = CCCCCCCCCC(=O)*; Leu(ol) = CC(C)C[C@H](N)CO; Iva = CC[C@](C)(N)C(=O)O; Aib = CC(C)(N)C(=O)O

Tests used:
Assay in all cases: NCI-60 cell line screen, 48 h
NCI-H226 lung = system: NCI-H226 lung
NCI-H460 lung = system: NCI-H460 lung
NCI-H522 lung = system: NCI-H522 lung
NCI/ADR-RES ovarian = system: NCI/ADR-RES ovarian
OVCAR-3 ovarian = system: OVCAR-3 ovarian
OVCAR-4 ovarian = system: OVCAR-4 ovarian
OVCAR-5 ovarian = system: OVCAR-5 ovarian
OVCAR-8 ovarian = system: OVCAR-8 ovarian
PC-3 prostate = system: PC-3 prostate
RPMI-8226 leukemia = system: RPMI-8226 leukemia
RXF 393 renal = system: RXF 393 renal
SF-268 CNS = system: SF-268 CNS
SF-295 CNS = system: SF-295 CNS
SF-539 CNS = system: SF-539 CNS
SK-MEL-2 melanoma = system: SK-MEL-2 melanoma
SK-MEL-28 melanoma = system: SK-MEL-28 melanoma
SK-MEL-5 melanoma = system: SK-MEL-5 melanoma
SK-OV-3 ovarian = system: SK-OV-3 ovarian
SN12C renal = system: SN12C renal
SNB-19 CNS = system: SNB-19 CNS
SNB-75 CNS = system: SNB-75 CNS
SR leukemia = system: SR leukemia
SW-620 colon = system: SW-620 colon
TK-10 renal = system: TK-10 renal
U251 CNS = system: U251 CNS
UACC-257 melanoma = system: UACC-257 melanoma
UACC-62 melanoma = system: UACC-62 melanoma
UO-31 renal = system: UO-31 renal

What does the source list for `C/C=C/CC(C)C(O)[C@H](NC(=O)[C@@H]1CCCN1C(=O)C(C)(C)NC(=O)CCCCCCCCC)C(=O)N[C@@](C)(CC)C(=O)N[C@@H](CCC(N)=O)C(=O)N[C@H](CCC(N)=O)C(=O)NC(C)(C)C(=O)N[C@@](C)(CC)C(=O)N[C@@H](CCC(N)=O)C(=O)N[C@H](CC(C)C)C(=O)N[C@H](CO)CC(C)C` (stereo partly drawn) (Decanoyl-[Aib]P[X14][Iva]Q[dQ][Aib][Iva]Q[dL][Leu(ol)])?
TGI (NCI-H226 lung): 1480 nM; GI50 (NCI-H460 lung): 94 nM; TGI (NCI-H460 lung): 1150 nM; GI50 (NCI-H522 lung): 55 nM; TGI (NCI-H522 lung): 720 nM; GI50 (NCI/ADR-RES ovarian): 985 nM; TGI (NCI/ADR-RES ovarian): 2330 nM; GI50 (OVCAR-3 ovarian): 41.7 nM; TGI (OVCAR-3 ovarian): 1310 nM; GI50 (OVCAR-4 ovarian): 82.5 nM; TGI (OVCAR-4 ovarian): 1870 nM; GI50 (OVCAR-5 ovarian): 208 nM; TGI (OVCAR-5 ovarian): 1290 nM; GI50 (OVCAR-8 ovarian): 199 nM; TGI (OVCAR-8 ovarian): 1330 nM; GI50 (PC-3 prostate): 52.7 nM; TGI (PC-3 prostate): 1050 nM; GI50 (RPMI-8226 leukemia): 29.5 nM; TGI (RPMI-8226 leukemia): 140 nM; GI50 (RXF 393 renal): 259 nM; TGI (RXF 393 renal): 1260 nM; GI50 (SF-268 CNS): 281 nM; TGI (SF-268 CNS): 1360 nM; GI50 (SF-295 CNS): 48.8 nM; TGI (SF-295 CNS): 754 nM; GI50 (SF-539 CNS): 338 nM; TGI (SF-539 CNS): 1310 nM; GI50 (SK-MEL-2 melanoma): 60.4 nM; TGI (SK-MEL-2 melanoma): 688 nM; GI50 (SK-MEL-28 melanoma): 62.7 nM; TGI (SK-MEL-28 melanoma): 2000 nM; GI50 (SK-MEL-5 melanoma): 40.7 nM; TGI (SK-MEL-5 melanoma): 200 nM; GI50 (SK-OV-3 ovarian): 233 nM; TGI (SK-OV-3 ovarian): 873 nM; GI50 (SN12C renal): 211 nM; TGI (SN12C renal): 1110 nM; GI50 (SNB-19 CNS): 134 nM; TGI (SNB-19 CNS): 1350 nM; GI50 (SNB-75 CNS): 174 nM; TGI (SNB-75 CNS): 803 nM; GI50 (SR leukemia): 253 nM; TGI (SR leukemia): 943 nM; GI50 (SW-620 colon): 89.2 nM; TGI (SW-620 colon): 1330 nM; GI50 (TK-10 renal): 67.5 nM; TGI (TK-10 renal): 1530 nM; GI50 (U251 CNS): 54.8 nM; TGI (U251 CNS): 1200 nM; GI50 (UACC-257 melanoma): 62.1 nM; TGI (UACC-257 melanoma): 758 nM; GI50 (UACC-62 melanoma): 103 nM; TGI (UACC-62 melanoma): 1470 nM; GI50 (UO-31 renal): 212 nM; TGI (UO-31 renal): 1110 nM
